Data published in paper PMC8533333, “Melatonin Analogues Potently Inhibit MAO-B and Protect PC12 Cells against Oxidative Stress” (Antioxidants, 2021).

Key:
HO-1 = HO-1 protein expression in PC12 cells (Western blotting); type: cell-based, rat; conditions: for HO-1 protein expression over time: 10 μM, 1 to 12 h, significant at 6–12 h; for increase in HO-1 expression: 30 μM, 12 h
Procedure: PC12 cells were seeded on 35 mm dishes at a density of 2 × 10^6 cells/dish and kept at 37 °C in humidified incubator for at least 24 h. Cells were treated with a series of concentrations of the tested compounds for 12 h or with the tested compounds (10 μM) for the indicated time points. Control cells were treated with serum-free media containing 0.3% DMSO instead. Total cell lysates were prepared according to the methods described previously, and stored at −20 °C until used. To evaluate the effects of the tested compounds on the nuclear translocation of Nrf2, nuclear fraction was separated from cytosolic fraction using NE-PER Nuclear and Cytoplasmic Extraction Reagents (Rockford, IL, USA), following the manufacturer’s directions. The protein concentrations were assessed using a BioRad DC protein assay kit (BioRad, Hercules, CA, USA). Equal amounts of proteins (20 µg) were resolved on 12% or 8% gels via sodium dodecyl sulfate-polyacrylamide gel electrophoresis and electrophoretically transferred onto nitrocellulose membrane (Whatman, Clifton, NJ, USA). Subsequently, immunoblotting was performed using anti-HO-1 or anti-Nrf2 antibodies, respectively, according to the procedures reported previously. Beta-actin, a highly conserved cytoskeletal protein, was used as a loading control of cell lysates to normalize the level of HO-1, while nuclear protein lamin B was used as a nuclear loading control to normalize the level of Nrf2 in the nuclear fraction. Finally, the immunoreactive bands corresponding to HO-1 or Nrf2 proteins were visualized using Clarity^TM Western ECL substrate (Bio-Rad, Hercules, CA, USA) using the BioRad ChemiDoc XRS imaging system (Bio-Rad, Hercules, CA, USA).

[1] = target: T1, Human recombinant MAO-A (hMAO-A) (Homo sapiens, UniProt P21397); assay: MAO-A enzyme assay (Amplex Red), selectivity; type: biochemical
T1 construct: purchased Sigma Aldrich; host or cells: insect cells
T1 sequence (P21397 1-527): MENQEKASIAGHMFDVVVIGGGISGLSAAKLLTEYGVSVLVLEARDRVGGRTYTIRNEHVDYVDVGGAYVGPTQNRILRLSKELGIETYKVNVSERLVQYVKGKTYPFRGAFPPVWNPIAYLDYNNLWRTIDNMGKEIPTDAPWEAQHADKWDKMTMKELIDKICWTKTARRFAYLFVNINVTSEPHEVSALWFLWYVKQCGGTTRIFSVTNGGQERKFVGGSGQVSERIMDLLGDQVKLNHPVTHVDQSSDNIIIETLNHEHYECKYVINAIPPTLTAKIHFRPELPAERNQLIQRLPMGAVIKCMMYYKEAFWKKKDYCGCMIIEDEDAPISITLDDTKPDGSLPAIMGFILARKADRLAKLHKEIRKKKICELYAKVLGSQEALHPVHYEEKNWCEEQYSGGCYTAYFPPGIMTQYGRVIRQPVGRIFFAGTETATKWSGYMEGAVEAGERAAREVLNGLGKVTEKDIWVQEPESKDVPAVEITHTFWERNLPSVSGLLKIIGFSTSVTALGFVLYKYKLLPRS
Procedure: Biological evaluation of the synthesized melatonin derivatives over both MAO-A and MAO-B was performed as reported previously. A detailed description of the protocol is in the Supplementary Materials.
6. Materials and methods of monoamine oxidase (MAO) enzyme assay
The inhibitory activity of MAO-A, B enzyme of the compounds was evaluated based on previously described method. The MAO activity was measured in relative fluorescence units (RFU) evoked by peroxidase-catalyzed oxidation of Amplex Red® to resorufin, in which H2O2 generated by MAO reaction was used as the […]. Human recombinant MAO-A (hMAO-A) and MAO-B (hMAO-B) enzyme expressed in insect cells were obtained from Sigma Aldrich. The 2 μL of test compound in DMSO (final concentration: 1 nM – 10 μM) was treated with 98 μL of hMAO enzyme solution in 50 mM sodium phosphate buffer (pH 7.4, final protein amounts: ~1.25 μg protein/well for MAO-A and ~2.5 μg protein/well for MAO -B) on 96-well black plate and incubated for 15 min at 37 °C. Then 100 μL of reaction working solution which is mixed solution of 400 μM Amplex Red® (Cayman, final concentration: 200 μM), 2 U/mL horseradish peroxidase ( Sigma-Aldrich, final concentration: 1 U/mL) and 2 mM substrate ( p-tyramine for MAO -A, benzylamine for MAO -B, Sigma-Aldrich, final concentration: 1 mM) in 50 mM sodium phosphate buffer (pH 7.4) were added and incubated for 20 min at 37 °C in the dark. The fluorescent intensity was quantified using a microplate reader (SpectraMax®i3, Molecular Device) with an excitation at 545 nm and an emission at 590 nm. The 50% inhibitory concentrations (IC50) of compounds were determined as the mean ± S.E.M. in triplicate from the dose-response inhibition curves using SigmaPlot® 13.0.
monoamine oxidase inhibitors. Bioorganic & medicinal chemistry 2015, 23, 6486-6496,

| Compound | HO-1 protein expression over time (HO-1) | increase in HO-1 expression (HO-1) | IC50 [1] |
| --- | --- | --- | --- |
| O=C(Nc1ccc2[nH]ccc2c1)c1cccc(Br)c1 [3r, 3-Bromo-N-(1H-indol-5-yl)benzamide] | time-dependent increases | 1.7 fold | > 100 µM |
| O=C(Nc1ccc2[nH]ccc2c1)c1cccc(Cl)c1 [3n, 3-Chloro-N-(1H-indol-5-yl)benzamide] | time-dependent increases | 1.6 fold | > 100 µM |
